Here are results for one compound from US20230339877A1, “Synthesis and Composition of Neurolenin D Mesylate and Related Compounds - New Drugs for the Treatment of Parasitic Nematode Infections in Humans, Animals and Plants” (Smith College, priority 2022, published 2023).

Structures can show the parent of a compound that is named as a salt.

In data set [1] the test system is microfilariae (larvae). The data set is described as follows: Killing of microfilariae (larvae) produced following mating of adult parasites. Type of data set: cell-based, Brugia pahangi. The conditions noted are these: repeated experiments. The source says: 100% of all adult male and female parasites are always killed upon treatment with NDM.
Data set [2] in a line: Biological activity assays for toxicity and mutagenicity. The conditions noted are these: preliminary data.
Data set [3] deals with adult female Brugia pahangi parasites (BP AF). The data set is described as follows: Killing of adult female Brugia pahangi parasites (BP AF) in culture. Format: cell-based. As for the experimental part: The drug was applied at 1, 2 and 3 parts per million (ppm) and was 100% effective at killing the parasites at all three concentrations. Even at 1 ppm, all parasites were killed within 90 hours after treatment. The control treatment is with 1, 2 and 3 ppm ethanol given to the parasites in culture under the same conditions. One adult female parasite treated with 1 ppm ethanol died at about 80 hours. This death is not experimentally significant as occasionally a parasite dies in culture without any drug treatment.

The subject of data set [4] is adult male Brugia pahangi parasites (BP AM). The data set is described as follows: Killing of adult male Brugia pahangi parasites (BP AM) in culture. Format: cell-based. As for the experimental part: The drug was applied at 1, 2 and 3 parts per million (ppm) and was 100% effective at killing the parasites at all three concentrations. Even at 1 ppm, all parasites were killed within 120 hours after treatment. The control treatment is with 1, 2 and 3 ppm ethanol given to the parasites in culture under the same conditions. One adult male parasite treated with 1 ppm ethanol died at about 40 hours. This death is not experimentally significant as occasionally a parasite dies in culture without any drug treatment.

[5] abbreviates: repeated in many separate trials.

With `C=C1C(=O)O[C@@H]2C[C@H](C)/C=C\C(=O)[C@](C)(O)[C@@H](OS(C)(=O)=O)[C@@H](OC(=O)CC(C)C)[C@@H]12` [NDM, Neurolenin D Mesylate], in data set [1], the “microfilariae (larvae) killed” value is 100%. Further, the mutagenicity entry in data set [2] was “not toxic or mutagenic”. For the same compound, in data set [2], the toxicity result is “not toxic”. Moreover, the “time after treatment by which all parasites were killed” value in data set [3] (adult female BP in culture, 1 ppm) was not above 90 h; in data set [4] (adult male BP in culture, 1 ppm), not above 120 h. Moreover, the “effective at killing the parasites” value in data set [3] (adult female BP in culture, drug applied at 1, 2 and 3 ppm, all three concentrations, FIG. 1) is reported as 100%; in data set [4] (adult male BP in culture, drug applied at 1, 2 and 3 ppm, all three concentrations, FIG. 2), 100%. For the same compound, the “speed of killing compared with other neurolenin derivatives” value is given as “more slowly” in data set [3] (adult female BP, FIG. 1, at the endpoint 100% of worms killed) and “more slowly” in data set [4] (adult male BP, FIG. 2, at the endpoint 100% of worms killed). In addition, the “adult female parasites killed upon treatment” value in data set [3] (setting [5]) is reported as 100%. The “adult male parasites killed upon treatment” value in data set [4] (setting [5]) is recorded as 100%.
